# Reference: patent US20240425574A1, “ANTI-PDGF-B ANTIBODIES AND PHARMACEUTICAL COMPOSITION THEREOF” (Regeneron Pharmaceuticals, Inc., priority 2021, published 2024)
# Like-named read-outs stand apart in the source and are kept apart here. Marks after values point to notes of the source that are not given here.
# Key:
# monocrotaline rats [1] = experiment: 4 weeks Monocrotaline PAH rats, preventive treatment (Example 10 study 1); assay type: in vivo, rat
# Method: Six to seven weeks old male Sprague Dawley rats were used. Rats were separated into treatment groups such that body weights were similar among different groups. […] Standard of care group was orally administered macitentan at 30 mg/kg daily for 28 days. At day one, rats were subcutaneously administered either 40 mg/kg of monocrotaline or 5 mL/kg of saline. By the end of day 28, right ventricular systolic pressure (RVSP) was measured by right heart catheterization and RV hypertrophy was calculated by Fulton index as the weight ratio of RV and (LV+septum). In study 2, rats were subcutaneously administered either 60 mg/kg of monocrotaline or 5 mL/kg of saline. […] Body weight change from day 0-35 were used for general toxicity assessment and animal mortality was calculated by day 35.
# Rats were anesthetized with isoflurane and were kept at approximately 37° C. using a heated platform (Heated Hard Pad 1, Braintree Scientific) and circulating heated water pump (T/Pump Classic, Gaymar Industries). The neck area for each rat was prepared for surgery by depilating over the right common Carotid artery and right Jugular vein. An incision was made and the right Jugular vein was isolated with care as to not damage the Carotid artery and/or the Vagus nerve. A piece of 5-0 silk suture was placed under the isolated Jugular vein to allow for retraction of the vessel cranially, then a 23-gauge needle was used to introduce a hole into the Jugular vein. A pressure catheter (Micro-tip catheter transducer SPR-1000, Millar Instruments, Inc.) was inserted into the opening of the Jugular vein and advanced past the right atrium into the right ventricle. The catheter was connected to pressure/volume instrument (MPVS-300, Millar Instruments, Inc.) that measured heart rate as well as both diastolic and systolic right ventricular pressures. These parameters were digitally acquired using a data acquisition system (PowerLab 4/35, AD Instruments). LabChart Pro 7.0 software (AD Instruments) was used to analyze right ventricular pressures. Readings were quantified from a 60 second interval of the pressure tracing (following a 2 minute period of recording to allow for pressure stabilization). The parameters analyzed were right ventricular systolic pressures (RVSP), heart rate (HR) and rate of right ventricular pressure rise (dP/dt max).
# After the in vivo hemodynamic measurements, animals were euthanized by exsanguinations under anesthesia and then RV free wall, left ventricle (LV) and septum tissue were harvested and weighted. RV hypertrophy was calculated by Fulton index as the weight ratio of RV and (LV+septum). Then, RV tissue was saved frozen (−80° C.) for biochemical analyses.
# PDGF-BB [2] = biological target: T1, PDGF-BB (Homo sapiens, UniProt P01127); experiment: FLIPR calcium flux in PASMC (Example 17); assay type: cell-based; parameters: purchased R&D Systems 220-GMP
# Method: (§1) Upon reaching 100% confluency within each well, PDGF driven calcium flux was assessed via the FLIPR® Calcium 5 Assay Kit on the FLIPR Tetra System (Molecular Devices) following the manufacturer's protocol. In brief, complete media was replaced with 50 μL assay media (DMEM-0.1% BSA-1× Penicillin/Streptomycin/L-Glutamine). The Calcium 5 dye was then reconstituted in the supplied buffer in the presence of probenecid. […] Human PDGF-AA, PDGF-BB and PDGF-DD serial dilutions and inhibitory constants were generated on separate dosing plates. A 0.5 nM concentration of PDGF-BB, 1 nM concentration of PDGF-DD and a 3 nM concentration of PDGF-AA were chosen as constants to assess antibody and small molecule inhibition. […] Antibodies were pre-incubated with PDGF proteins for 30 minutes before addition onto the cells via the FLIPR tetra system. […] These calcium traces were analyzed for their Max-Min values using the SoftMax Pro Software (Molecular Devices).
# Human PDGF-AA = experiment: FLIPR calcium flux in PASMC (Example 17); assay type: cell-based; settings: 3 nM PDGF-AA constant
# Method: as §1
# PDGF-DD = settings: read-out: IC50 Proliferation, PDGF-DD; PASMC; IncuCyte cell confluence at day 6
# Method: (§2) For calcium flux and proliferation assays, primary Human Pulmonary Smooth Muscle Cells were seeded onto 96-well assay plates at a cell density of 10,000/well and 2,000/well respectively. The smooth muscle cells were cultured in supplier recommended smooth muscle media in a humidified incubator at 37° C. in 5% CO2.
# (§3) Proliferation was assessed via the IncuCyte live cell imaging system (Essen BioScience). Following overnight plating, the complete media was replaced with serum free smooth muscle media supplemented with 0.1% BSA. […] Plates were imaged every 3 hours over the course of 7 days and proliferation was determined by measuring cell confluence in the well at day 6 via the IncuCyte Base Analysis software (Sartorius).
# PDGF-AA = settings: read-out: IC50 Proliferation, PDGF-AA; PASMC; IncuCyte cell confluence at day 6
# Method: as §2, §3
# Human PDGF-DD = settings: read-out: IC50 Calcium Flux, PDGF-DD; PASMC; 1 nM PDGF-DD constant
# Method: as §1
# PDGF-BB [3] = biological target: T1, PDGF-BB; experiment: IncuCyte proliferation of PASMC (Example 17); assay type: cell-based; parameters: purchased R&D Systems 220-GMP; settings: IncuCyte cell confluence at day 6
# Method: as §2, §3
# monocrotaline rats [4] = experiment: Study #2, 5 weeks Monocrotaline severe PAH rats survival (Example 19); assay type: in vivo, rat
# Method: In order to evaluate the effect of two inhibitory anti-PDGF-B antibodies in the rat monocrotaline model of pulmonary arterial hypertension, 2 studies were performed: study #1 was performed on 4-week Monocrotaline PAH Rats with Preventive Drug Treatment; and study #2 was performed on 5-weeks Monocrotaline Severe PAH Rats Survival with Therapeutic Drug Treatment (Tables 26-27).
# Six to seven weeks old male Sprague Dawley rats were used. Rats were separated into treatment groups such that body weights were similar among different groups. […] On day one, rats were subcutaneously administered either 40 mg/kg of monocrotaline or 5 mL/kg or saline as control. On day 28, right ventricular systolic pressure (RVSP) was measured by right heart catheterization and RV hypertrophy was calculated by Fulton index as the weight ratio of RV to (LV+septum). In study #2, rats were subcutaneously administered either 60 mg/kg of monocrotaline or 5 mL/kg of saline. […] Small molecule group was orally administered macitentan at 30 mg/kg daily. Body weight change from day 0-35 were used for general toxicity assessment and animal mortality and median survival time were calculated by day 35.
# hypoxia/sugen PAH mice [5] = experiment: Hypoxia/Sugen PAH mice, therapeutic treatment (Study 1); assay type: in vivo, mouse; settings: dose mg/kg: H4H13145P 25, Macitentan 30, REGN2176 25
# Method: For the first study, 14 to 16 weeks old male humanized PDGFRβ^hu-hu mice, (MAID #1639) were used. Mice were separated into treatment groups by weight such that starting body weights were similar among different groups. […] Mice in hypoxia chamber were given VEGF receptor inhibitor Sugen5146 at 20 mg/kg subcutaneously once a week for 6 weeks. The mice were administered antibodies starting on day 21 for 3 weeks as outlined in Table 11. […] Mice were anesthetized with isoflurane and were kept at approximately 37° C. using a heated platform (Heated Hard Pad 1, Braintree Scientific) and circulating heated water pump (T/Pump Classic, Gaymar Industries). The neck area for each mouse was prepared for surgery by depilating over the right common Carotid artery and right Jugular vein. An incision was made, and the right Jugular vein was isolated with care as to not damage the Carotid artery and/or the Vagus nerve. […] The catheter was connected to pressure/volume instrument (MPVS-300, Millar Instruments, Inc.) that measured heart rate as well as both diastolic and systolic right ventricular pressures. […] The parameters analyzed were right ventricular systolic pressures (RVSP), heart rate (HR) and rate of right ventricular pressure rise (dP/dt max). […] RV hypertrophy was calculated by Fulton index as the weight ratio of RV and (LV+septum). […]
# hypoxia/sugen PAH mice [6] = assay type: in vivo, mouse; settings: Hypoxia/Sugen Mice - Therapeutic dose response; dose mg/kg: H4H13145P 1, Macitentan 30, REGN2176 25
# Method: For the second study (Study 2), 12 to 14 weeks old male C57/BL mice, (Taconic) were used for the studies. Mice were separated into treatment groups by weight such that starting body weights were similar among different groups. […] Mice in hypoxia chamber were given VEGF receptor inhibitor Sugen5146 at 20 mg/kg subcutaneously once a week for 6 weeks. The mice were administered antibodies starting on day 21 for 3 weeks as outlined in Table 12. By the end of week 6, right ventricular systolic pressure (RVSP) was measured by right heart catheterization and RV hypertrophy was calculated by Fulton index as the weight ratio of RV and (LV+septum). […]
# Mice were anesthetized with isoflurane and were kept at approximately 37° C. using a heated platform (Heated Hard Pad 1, Braintree Scientific) and circulating heated water pump (T/Pump Classic, Gaymar Industries). […] The catheter was connected to pressure/volume instrument (MPVS-300, Millar Instruments, Inc.) that measured heart rate as well as both diastolic and systolic right ventricular pressures. […] Readings were quantified from a 60 second interval of the pressure tracing (following a 2 minute period of recording to allow for pressure stabilization). The parameters analyzed were right ventricular systolic pressures (RVSP), heart rate (HR) and rate of right ventricular pressure rise (dP/dt max). […]
# [7] = Monocrotaline Rat - Prevention, dose mg/kg: H4H13145P 25, Macitentan 30, Sotatercept 25
# [8] = MCT 60 mg/kg rats, treatment from day 14, antibody SC twice per week, Macitentan 30 mg/kg daily gavage
# T1 sequence (P01127 82-190 limits assumed): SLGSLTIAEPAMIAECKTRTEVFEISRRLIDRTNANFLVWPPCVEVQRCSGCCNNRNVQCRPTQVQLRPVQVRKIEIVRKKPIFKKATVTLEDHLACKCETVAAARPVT
compound,measurement,setting,value
"Sotatercept: ACVRIIa-Fc, vessel remodeling comparator drug",Reduction in RVSP,monocrotaline rats [1]; [7],14 mmHg
COc1ccc(-c2cncc(N[C@@H](C)c3cccc(NC(=O)c4cncc(C)c4)c3)n2)cc1OC [Seralutinib],IC50,"PDGF-BB [2]; PASMC, 0.5 nM PDGF-BB constant, read-out: IC50 Calcium Flux, PDGF-BB",0.01 µM
same,inhibition in words,"PDGF-BB [2]; PDGF-AA, PDGF-DD and PDGF-BB driven calcium flux and proliferation",fully inhibited
same,IC50,"PDGF-BB [2]; range over PDGF-AA, PDGF-DD, PDGF-BB driven calcium flux and proliferation, read-out: IC50 values",0.006 to 0.027 µM
same,IC50,Human PDGF-AA,0.01 µM
same,IC50,PDGF-DD,0.006 µM
same,IC50,PDGF-AA,0.009 µM
same,IC50,Human PDGF-DD,0.027 µM
same,IC50,PDGF-BB [3],0.006 µM
Cc1ccc(NC(=O)c2ccc(CN3CCN(C)CC3)cc2)cc1Nc1nccc(-c2cccnc2)n1 [Imatinib],IC50,Human PDGF-AA,0.27 µM
"CCCNS(=O)(=O)Nc1ncnc(OCCOc2ncc(Br)cn2)c1-c1ccc(Br)cc1 [Macitentan, reference compound]",Death # by day 35,monocrotaline rats [4]; [8],11
same,Survival rate by day 35,monocrotaline rats [4]; [8],0%*
same,median survival,monocrotaline rats [4]; [8],20 days
same,survival,"monocrotaline rats [4]; monocrotaline 60 mg/kg, antibody 25 mg/kg 2 times a week from day 14, macitentan 30 mg/kg daily, day 35",failed to prolong survival
same,% reduction in RV hypertrophy,hypoxia/sugen PAH mice [5],trend
same,Reduction in RVSP,hypoxia/sugen PAH mice [5],19-25 mmHg
same,% reduction in RV hypertrophy,monocrotaline rats [1]; [7],trend
same,lessening of right ventricular hypertrophy (Fulton Index),"monocrotaline rats [1]; monocrotaline 40 mg/kg, antibody 25 mg/kg SC 2x/week, Macitentan 30 mg/kg P.O. daily, versus isotype control",failed to reduce
same,right ventricular systolic pressure elevation,"monocrotaline rats [1]; monocrotaline 40 mg/kg, antibody 25 mg/kg SC 2x/week, Macitentan 30 mg/kg P.O. daily, week 4",significantly reduced
same,% reduction in RV hypertrophy,hypoxia/sugen PAH mice [6],trend
same,Reduction in RVSP,hypoxia/sugen PAH mice [6],19-25 mmHg
